US11427548B2 (Arvinas Operations, Inc., priority 2015, dated 2022)
Where two headings read alike, the source gives them in different places.

Biological target: T1, Androgen Receptor (Homo sapiens, UniProt P10275)
T1 construct: endogenous in cells; host or cells: VCaP cells
T1 sequence (P10275 1-920): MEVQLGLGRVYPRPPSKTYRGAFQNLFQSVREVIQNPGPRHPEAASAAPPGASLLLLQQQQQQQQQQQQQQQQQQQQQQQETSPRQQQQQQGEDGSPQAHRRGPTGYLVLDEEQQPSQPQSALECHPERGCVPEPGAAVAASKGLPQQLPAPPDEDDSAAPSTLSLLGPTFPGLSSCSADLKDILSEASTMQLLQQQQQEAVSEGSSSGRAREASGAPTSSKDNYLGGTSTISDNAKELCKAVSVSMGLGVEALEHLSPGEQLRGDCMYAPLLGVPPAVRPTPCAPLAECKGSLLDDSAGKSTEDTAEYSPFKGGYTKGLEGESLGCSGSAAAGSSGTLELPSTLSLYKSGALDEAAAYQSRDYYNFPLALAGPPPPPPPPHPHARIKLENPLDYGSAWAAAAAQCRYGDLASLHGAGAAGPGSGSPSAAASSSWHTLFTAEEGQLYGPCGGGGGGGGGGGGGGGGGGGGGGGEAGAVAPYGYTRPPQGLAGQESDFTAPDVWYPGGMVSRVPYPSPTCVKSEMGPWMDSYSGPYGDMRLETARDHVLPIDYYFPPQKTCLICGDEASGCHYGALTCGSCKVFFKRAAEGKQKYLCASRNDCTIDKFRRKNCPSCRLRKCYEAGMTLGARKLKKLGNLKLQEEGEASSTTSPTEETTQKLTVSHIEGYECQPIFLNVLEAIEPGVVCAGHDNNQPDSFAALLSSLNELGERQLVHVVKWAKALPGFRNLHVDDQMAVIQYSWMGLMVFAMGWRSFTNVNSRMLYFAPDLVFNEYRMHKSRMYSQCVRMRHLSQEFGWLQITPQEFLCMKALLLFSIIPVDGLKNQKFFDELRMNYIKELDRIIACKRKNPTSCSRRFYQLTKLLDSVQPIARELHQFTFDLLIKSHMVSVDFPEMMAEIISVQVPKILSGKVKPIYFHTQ
Assay: Androgen Receptor ELISA assay (PathScan AR ELISA) in VCaP cells: AR degradation, Dmax and DC50
Type: cell-based
Procedure, shortened: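 VCaP cells in phenol red-free RPMI with 5% charcoal-stripped FBS were grown at least 3 days, then given compound as 7 half-log doses in 0.1% DMSO with 0.1 nM R1881 for 24 h. Lysates went into a sandwich AR ELISA with TMB read at 450 nm.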

[1] = read-out: VCaP DC50; VCaP cells; Table 35
[2] = VCaP cells; Table 36; read-out: VCaP DC50
[3] = VCaP cells; Table 35; read-out: VCaP DC50
[4] = VCaP, VCaP cells; Table 35; read-out: VCaP Dmax (%)
[5] = read-out: VCaP DC50; VCaP cells; Table 36
[6] = VCaP, VCaP cells; Table 36; read-out: VCaP Dmax (%)
[7] = VCaP cells; Table 34; read-out: VCaP DC50
[8] = VCaP, VCaP cells; Table 34; read-out: VCaP Dmax (%)

Cc1ncsc1-c1ccc(CNC(=O)[C@@H]2C[C@@H](O)CN2C(=O)[C@@H](NC(=O)COCCCCOc2ccc(-c3ccc(N4C(=S)N(c5ccc(C#N)c(C(F)(F)F)c5)C(=O)C4(C)C)cc3)cc2)C(C)(C)C(=O)OC(C)(C)C)cc1 [Example 545]
Dmax (VCaP, read-out: VCaP Dmax (%)): 51 to 70% | DC50 [1]: < 50 nM

Cc1ncsc1-c1ccc(CNC(=O)[C@@H]2C[C@@H](O)CN2C(=O)[C@@H](NC(=O)COC[C@H](O)[C@@H](O)COc2ccc(-c3ccc(N4C(=S)N(c5ccc(C#N)c(C(F)(F)F)c5)C(=O)C4(C)C)cc3)cc2)C(C)(C)C)cc1 [Example 567]
Dmax (VCaP, read-out: VCaP Dmax (%)): > 71% | DC50 [1]: < 50 nM

Cc1ncsc1-c1ccc([C@H](C)NC(=O)[C@@H]2C[C@@H](O)CN2C(=O)[C@@H](NC(=O)CN[C@H]2C[C@@H](N3CCN(c4ccc(C(=O)N[C@H]5C(C)(C)[C@H](Oc6ccc(C#N)c(Cl)c6)C5(C)C)cn4)CC3)C2)C(C)(C)C)cc1 [Example 861, N-((1r,3R)-3-(3-chloro-4-cyanophenoxy)-2,2,4,4-tetramethylcyclobutyl)-6-(4-((1R,3S)-3-((2-(((S)-1-((2S,4R)-4-hydroxy-2-(((S)-1-(4-(4-methylthiazol-5-yl)phenyl)ethyl)carbamoyl)pyrrolidin-1-yl)-3,3-dimethyl-1-oxobutan-2-yl)amino)-2-oxoethyl)amino)cyclobutyl)piperazin-1-yl)nicotinamide]
DC50 [2]: < 50 nM | Dmax (VCaP, read-out: VCaP Dmax (%)): 51 to 70%

CNCC(NC(=O)[C@@H]1C[C@@H](O)CN1C(=O)[C@@H](NC(=O)COCCCCCOc1ccc(C(=O)N[C@H]2C(C)(C)[C@H](Oc3ccc(C#N)c(Cl)c3)C2(C)C)cc1)C(C)(C)C)c1ccc(-c2scnc2C)cc1 (some centres unmarked) [Example 508]
DC50 [3]: < 50 nM | Dmax [4]: > 71%

Cc1ncsc1-c1ccc([C@H](C)NC(=O)[C@@H]2C[C@@H](O)CN2C(=O)[C@@H](NC(=O)CN2CC3CCC(C2)N3CCCc2ccc(C(=O)NC3C(C)(C)C(Oc4ccc(C#N)c(Cl)c4)C3(C)C)cc2)C(C)(C)C)cc1 (stereo partly drawn) [Example 808, (2S,4R)-1-((2S)-2-(2-(8-(3-(4-(((1r,3r)-3-(3-chloro-4-cyanophenoxy)-2,2,4,4-tetramethylcyclobutyl)carbamoyl)phenyl)propyl)-3,8-diazabicyclo[3.2.1]octan-3-yl)acetamido)-3,3-dimethylbutanoyl)-4-hydroxy-N-((S)-1-(4-(4-methylthiazol-5-yl)phenyl)ethyl)pyrrolidine-2-carboxamide]
Dmax (VCaP, read-out: VCaP Dmax (%)): 26 to 50% | DC50 [5]: < 50 nM

Cc1ncsc1-c1ccc([C@H](C)NC(=O)[C@@H]2C[C@@H](O)CN2C(=O)[C@@H](NC(=O)OCc2ccccc2)[C@@H](C)OCCCCCCOc2ccc(N3C(=O)N(c4ccc(C#N)c(C(F)(F)F)c4)C(=O)C3(C)C)cc2)cc1 [Example 677, benzyl ((2S,3R)-3-((6-(4-(3-(4-cyano-3-(trifluoromethyl)phenyl)-5,5-dimethyl-4-oxo-2-thioxoimidazolidin-1-yl)phenoxy)hexyl)oxy)-1-((2S,4R)-4-hydroxy-2-(((S)-1-(4-(4-methylthiazol-5-yl)phenyl)ethyl)carbam-oyl)pyrrolidin-1-y)-1-oxobutan-2-yl)carbamate]
DC50 [5]: > 501 nM

C[C@H](NC(=O)[C@@H]1C[C@@H](O)CN1C(=O)[C@@H](NC(=O)COCCCCCNc1ccc(C(=O)N[C@H]2C(C)(C)[C@H](Oc3ccc(C#N)c(Cl)c3)C2(C)C)cc1)C(C)(C)C)c1ccc(C#N)cc1 [Example 541]
DC50 [3]: < 50 nM | Dmax [4]: > 71%

Cc1ncsc1-c1ccc([C@H](C)NC(=O)[C@@H]2C[C@@H](O)CN2C(=O)[C@@H](NC(=O)CCCCCCCCCc2ccc(C(=O)N[C@H]3C(C)(C)[C@H](Oc4ccc(C#N)c(Cl)c4)C3(C)C)cc2)C(C)(C)C)cc1 [Example 764, (2S,4R)-1-((S)-2-(10-(4-(((1r,3r)-3-(3-chloro-4-cyanophenoxy)-2,2,4,4-tetramethylcyclobutyl)carbamoyl)phenyl)decan-amido)-3,3-dimethylbutanoyl)-4-hydroxy-N-((S)-1-(4-(4-methylthiazol-5-yl)phenyl)ethyl)pyrrolidine-2-carboxamide]
DC50 [2]: 51 to 500 nM | Dmax [6]: 51 to 70%

Cc1ncsc1-c1ccc(CNC(=O)[C@@H]2C[C@@H](O)CN2C(=O)[C@@H](NC(=O)C(C)Oc2ccc(OCCOc3ccc(N4C(=S)N(c5ccc(C#N)c(C(F)(F)F)c5)C(=O)C4(C)C)cc3)cc2)C(C)(C)C)cc1 (some centres unmarked) [Example 374]
Dmax (VCaP, read-out: VCaP Dmax (%)): 26 to 50% | DC50 (read-out: VCaP DC50; VCaP cells; Table 34): < 50 nM

CCc1ncsc1-c1ccc(CNC(=O)[C@@H]2C[C@@H](O)CN2C(=O)[C@@H](NC(=O)COCCCCNc2ccc(C(=O)N[C@H]3C(C)(C)[C@H](Oc4ccc(C#N)c(Cl)c4)C3(C)C)cc2)C(C)(C)C)cc1 [Example 415]
DC50 [7]: < 50 nM | Dmax [8]: > 71%

Cc1ncsc1-c1ccc([C@H](C)NC(=O)[C@@H]2C[C@@H](O)CN2C(=O)[C@@H](NC(=O)CN2CCN(C3CN(c4ccc(C(=O)N[C@H]5C(C)(C)[C@H](Oc6ccc(C#N)c(Cl)c6)C5(C)C)cn4)C3)CC2)C(C)(C)C)cc1 [Example 795, N-((1r,3r)-3-(3-chloro-4-cyanophenoxy)-2,2,4,4-tetramethylcyclobutyl)-6-(3-(4-(2-(((S)-1-((2S,4R)-4-hydroxy-2-(((S)-1-(4-(4-methylthiazol-5-yl)phenyl)ethyl)carbamoyl)pyrrolidin-1-yl)-3,3-dimethyl-1-oxobutan-2-yl)amino)-2-oxoethyl)piperazin-1-yl)azetidin-1-yl)nicotinamide]
DC50 [2]: < 50 nM | Dmax [6]: > 71%

Cc1ncsc1-c1ccc(CNC(=O)[C@@H]2C[C@@H](O)CN2C(=O)[C@@H](NC(=O)COC[C@H]2C[C@H](Oc3ccc(C(=O)N[C@H]4C(C)(C)[C@H](Oc5ccc(C#N)c(Cl)c5)C4(C)C)cc3)C2)C(C)(C)C)cc1 [Example 564]
DC50 [3]: < 50 nM | Dmax [4]: > 71%

Cc1ncsc1-c1ccc(CNC(=O)[C@@H]2C[C@@H](O)CN2C(=O)[C@@H](C(C)C)n2cc(OCCCOCCCCCOc3ccc(N4C(=S)N(c5ccc(C#N)c(C(F)(F)F)c5)C(=O)C4(C)C)cc3)cn2)nc1 (racemic) [Example 431]
Dmax (VCaP, read-out: VCaP Dmax (%)): < 25% | DC50 [1]: > 501 nM

CC(C)(C)[C@H](NC(=O)COc1ccc(OCCOc2ccc(N3C(=S)N(c4cnc(C#N)c(C(F)(F)F)c4)C(=O)C3(C)C)cc2)cc1)C(=O)N1C[C@H](O)C[C@H]1C(=O)NCc1ccc(-c2cnco2)cc1 [Example 371]
DC50 [7]: < 50 nM | Dmax [8]: > 71%

CC(C)(C)[C@H](NC(=O)COCCCCCNc1ccc(C(=O)N[C@H]2C(C)(C)[C@H](Oc3ccc(C#N)c(Cl)c3)C2(C)C)cc1)C(=O)N1C[C@H](O)C[C@H]1C(=O)NCc1ccc(-n2nccn2)cc1 [Example 527]
DC50 [3]: < 50 nM | Dmax [4]: 26 to 50%

Cc1ncsc1-c1ccc([C@H](C)NC(=O)[C@@H]2C[C@@H](O)CN2C(=O)[C@@H](NC(=O)CN2CCN(C3CC4(C3)CN(c3ccc(C(=O)N[C@H]5C(C)(C)[C@H](Oc6ccc(C#N)c(Cl)c6)C5(C)C)cn3)C4)CC2)C(C)(C)C)cc1 [Example 809, N-((1r,3r)-3-(3-chloro-4-cyanophenoxy)-2,2,4,4-tetramethylcyclobutyl)-6-(6-(4-(2-(((S)-1-((2S, 4R)-4-hydroxy-2-(((S)-1-(4-(4-methylthiazol-5-yl)phenyl)ethyl)carbamoyl)pyrrolidin-1-yl)-3,3-dimethyl-1-oxobutan-2-yl)amino)-2-oxoethyl)piperazin-1-yl)-2-azaspiro[3.3]heptan-2-yl)n icotinamide]
DC50 [2]: < 50 nM | Dmax (VCaP, read-out: VCaP Dmax (%)): > 71%

CC(C)(C)[C@H](NC(=O)COCCCOCCCCOc1ccc(N2C(=S)N(c3ccc(C#N)c(Br)c3)C(=O)C2(C)C)cc1F)C(=O)N1C[C@H](O)C[C@H]1C(=O)NCc1ccc(-c2cnco2)cc1 [Example 334]
DC50 [7]: < 50 nM | Dmax [8]: > 71%

Cc1ncsc1-c1ccc([C@H](C)NC(=O)[C@@H]2C[C@@H](O)CN2C(=O)[C@H](c2ncc(CCCN3CCN(c4ccc(C(=O)NC5C(C)(C)C(Oc6ccc(C#N)c(Cl)c6)C5(C)C)cn4)CC3)n2C)C(C)C)cc1 (stereo partly drawn) [Example 702, N-((1r,3r)-3-(3-chloro-4-cyanophenoxy)-2,2,4,4-tetramethylcyclobutyl)-6-(4-(3-(2-((S)-1-((2S,4R)-4-hydroxy-2-(((S)-1-(4-(4-methylthiazol-5-yl)phenyl)ethyl)carbam-oyl)pyrrolidin-1-yl)-3-methyl-1-oxobutan-2-yl)-1-methyl-1H-imidazol-5-yl)propyl)piperazin-1-yl)nicotinamide]
VCaP Dmax (%) (VCaP cells; Table 36): + (Dmax ≤ 25%) | DC50 [2]: > 501 nM
